Where a name gives a salt, the structure may show the parent alone.
Tests used:
[1] = system: AGEs in wild type AB zebrafish; assay: Anti-glycation activity on zebrafish (AGEs increase model, 0.4 M glucose); format: in vivo; conditions: 200 μg/mL, 5 dpf zebrafish, 24 h
Experimental: Zebrafish were all fed in fish culture water at 28° C. (water quality: 200 mg instant sea salt was added to 1 L reverse osmosis water, the conductivity was 450-550 μS/cm; PH 6.5~8.5; Hardness of 50-100 mg/L CaCO3), provided by a fish breeding center, experimental animal use license number: SYXK (Zhejiang) 2012-0171, feeding management in line with the international AAALAC certification (certification number: 001458) requirements. Wild type AB zebrafish are bred naturally in pairs. Zebrafish aged 5 days after fertilization (DPF) were used to evaluate the anti-aging efficacy of samples.
Five DPF wild type AB zebrafish were randomly selected and placed in 1.5 mL centrifuge tubes, with 10 zebrafish in each tube (experimental group). The extracts of Dendrobium officinale flower were given in aqueous solution with positive control aminoguanidine hydrochloride (AG) concentration of 200 μg/mL, and normal control group and model control group were set at the same time. The volume of each tube was 150 μL. […] After 24 h treatment on a 60° C. shaker, the supernatant was centrifuged and the data were collected using a multifunctional microplate reader, the fluorescent values of AGEs in each experimental group were analyzed, and the results of statistical analysis of this indicator were used to evaluate the anti-aging efficacy of samples.

[2] = system: CML expression in human dermal fibroblasts (HDFs); assay: Anti-glycation activity on HDFs (CML immunofluorescence, glyoxal/MGO-induced); format: cell-based
Experimental: HDFs cells were digested from T75 flasks and seeded to 12 well culture plate on slides at 50,000 cells per well. After 48 h the cells were treated by 0.5 mM glyoxal for 48 h. Then the cells were treated with or without positive controls or active samples for an additional 48 h. At the end of the experiment, cell slides were washed once by phosphate-buffered saline (PBS) and fixed in polyformaldehyde overnight at 4° C. For […] (CML) biomarker staining, the slides were blocked in 1% bovine serum albumin (BSA) for 1 h then applied with primary CML antibody (1:50) overnight at 4° C. The next day secondary antibody (1:1000) was applied for 2 h at room temperature. […] Image J was used to quantified CML expression from different visions randomly picked by each group. Data is presented as the mean±SD, and analyzed with Student's t-test or one-way ANOVA. * P<0.05, ** P<0.01, *** P<0.001. […]
HDFs were cultured in high-glucose DMEM supplemented with 10% FBS containing 100 µg/ml of PS at 37° C. in a humidified 5% CO2 incubator. Cell viability was assessed using the CCK-8 kit. […] Counterstaining was performed by adopting anti-fluorescence quenching and sealing liquid containing DAPI, followed by visualisation and fluorescence image capture using a microscope (Leica, Germany). ImageJ software was used to quantify CML expression from different images randomly selected in each group.

[3] = system: fluorescent AGEs (BSA-fructose/glucose system); assay: Fluorescent AGEs formation in a BSA-fructose/glucose system; format: biochemical, bovine
Experimental: The formation of total fluorescent AGEs in glycated samples was assessed by determining their fluorescent intensities at an excitation/emission wavelength of 350/450 nm, as previously described. Glycated protein was prepared in vitro by incubating BSA in the presence of D-glucose (GLC) and D-fructose (FRC). The DOF extract and specific standards were dissolved in DMSO:water (1:4). BSA (4 mg/ml, 100 μl) was preliminary mixed with 50 μl of GLC (0.5 M) and 50 μl of FRC (0.5 M) in 20 mM sodium phosphate buffer (pH 7.4), and then 100 μl samples were added in the 96-well plate and incubated at 37.5° C. for 7 days. All solutions were prepared under sterile conditions and filtered using a 0.22-μm syringe before incubation. The assay was performed in triplicate, and AG was used as a positive control.

Question: `N=C(N)NN` [Aminoguanidine hydrochloride] was tested. Which “AGEs fluorescence value (mean ± SE)” value [1] did it give?
Answer: 35106 ± 770

Question: And the “Anti-glycation effect, CML expression, AVE” value ([2]; 0.1 mM, 48 h after 0.5 mM glyoxal, Glyoxal = 100.00)?
Answer: 11.89

Question: And the inhibition of glycation ([2]; positive compound AG, MGO-induced HDFs, CML IF)?
Answer: 88.11%

Question: What about the “IC50, fluorescent AGEs” value ([3]; BSA-fructose/glucose, 37.5° C., 7 days, text b277) of the same molecule?
Answer: 177.3 ± 11.6 µg/mL

Question: And the IC50 ([3]; read-out: IC50, AGE formation)?
Answer: 1600 µM

From patent US20260232750A1, “COMPOSITION AND METHOD FOR INHIBITING ADVANCED GLYCATION END PRODUCTS” (ACCESS BUSINESS GROUP INTERNATIONAL LLC, priority 2022, published 2026)
